Test [1] deals with dendritic cells. Briefly: Induction of IL-12 secretion in dendritic cells (ELISA). Format: cell-based, BALB/c mice. Conditions: casuarine alone, absence of LPS; 1 μg/ml versus 40 μg/ml.
The test system of test [2] is α-D-glucosidase. The test can be described thus: Glycosidase inhibition: α-D-glucosidase, Bacillus. Format: biochemical, Bacillus stearothermophilus. To be noted: 1 mg/ml. The method, boiled down:
(§1)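 Enzymes assayed at 20 °C in McIlvaine citrate/phosphate buffer at each enzyme's optimum pH with p-nitrophenyl substrate at 3.57 mM final. Reactions stopped with 0.4M glycine pH 10.4 within the exponential phase; endpoint absorbance at 405 nm against water blanks.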

Test [3] has as its target T1, α-D-galactosidase (Coffea arabica, UniProt Q42656).
T1 construct: purchased Sigma
The test can be described thus: Glycosidase inhibition: α-D-galactosidase. Format: biochemical, Green coffee beans (Coffea sp.). Conditions: read-out: % inhibition, galactosidase. The method, boiled down:
as §1

The target in test [4] is T2, rabbit small intestine sucrase (Oryctolagus cuniculus, UniProt P07768).
T2 construct: from tissue; host or cells: rabbit small intestine
Briefly: Inhibition of rabbit small intestine sucrase. It counts as biochemical. To be noted: 700 μM.

Test [5] deals with B16-F10 tumour cells. Briefly: Control of lung metastasis in mice (B16-F10). It counts as in vivo, C57/bl6 mice. To be noted: 50 mg/kg s/c on days 2 and 4; lungs on day 14. The method, then: Mice (C57/bl6 under i/p ketamine anaesthesia) were challenged i/v (tail vein) with 5×10^4 B16-F10 tumour cells in a final volume of 100 μl per mouse on day 0. Test compounds (50 mg/kg in 200 μl sterile non-pyrogenic saline) were administered sic (right flank) on days 2 and 4. On day 14 the mice were sacrifices and the lungs dissected and stained in Indian ink solution (150 ml bidistilled water, 30 ml India Ink, 4 drops NH4OH) for 10 minutes then fixed for at least 24 hr in Fakete's solution (90 ml 37% formaldehyde, 900 ml 70% EtOH and 45 ml glacial acetic acid). The metastases in the stained and fixed lungs could then be visualized, counted and photographed.

Test [6] deals with T3, α-D-glucosidase (Saccharomyces cerevisiae, UniProt P53341).
T3 construct: purchased Sigma
The test can be described thus: Glycosidase inhibition (p-nitrophenyl substrate): α-D-glucosidase, yeast. It counts as biochemical, Saccharomyces cerevisiae (Baker's yeast). The method, boiled down:
as §1

Test [7] relates to β-D-glucosidase. Briefly: Glycosidase inhibition: β-D-glucosidase, almond. It counts as biochemical, Almonds (Prunus sp.). The method, boiled down:
as §1

Test [8] relates to Naringinase. Briefly: Glycosidase inhibition: Naringinase. Conditions: 1 mg/ml. It counts as biochemical, Penecillium decumbens. The method, boiled down:
as §1

Test [9] concerns MCF-7 cells. Briefly: Effect on glycosylation of breast cancer cells (N-glycan HPLC). It counts as cell-based. To be noted: 0.75 mM, 62 and 86 hour time points.
Experimental: MCF-7 cells (European Collection of Cell Cultures Ref. 86012803) were taken from liquid nitrogen stock, thawed at room temperature and transferred to 10 ml Dulbeccos Modified Eagle's Medium with Hams F12, 15 mM Hepes and L-glutamine (DMEM: Cambrex Cat. No. BE12-719F) supplemented with 10% v/v foetal calf serum (FCS: BioWest Labs Cat. No. S02755, Lot. No. S1800). The FCS was pre-filtered through a 0.2 μm sterile filter.
The cells were then centrifuged at 1,500 rpm in a Centaur bench-top centrifuge and the supernatant removed. The cells were reconstituted in fresh media and seeded into two T75 cm^3 Nunclon tissue culture flasks and allowed to settle overnight at 37° C. in a 5% CO2 incubator. The flasks were wrapped in cling film to prevent cross-contamination and the following day the media was changed to include the antibiotics penicillin and streptomycin as a precautionary measure against infection (at concentrations of 1 mg/cm^3 and 5 mg/cm^3, respectively). […]
The cells were harvested using a non-enzymatic method. At each of the time points the cells were viewed under the inverted light microscope and the morphology evaluated. […] The number of cells was then counted in a haemocytometer and cell viability evaluated by mixing 0.1 cm^3 of each cell suspension with a drop of trypan blue solution. […]
Evaluated using the BioRad protein assay according to the manufacturer's instructions. […]

T3 sequence (P53341 whole entry): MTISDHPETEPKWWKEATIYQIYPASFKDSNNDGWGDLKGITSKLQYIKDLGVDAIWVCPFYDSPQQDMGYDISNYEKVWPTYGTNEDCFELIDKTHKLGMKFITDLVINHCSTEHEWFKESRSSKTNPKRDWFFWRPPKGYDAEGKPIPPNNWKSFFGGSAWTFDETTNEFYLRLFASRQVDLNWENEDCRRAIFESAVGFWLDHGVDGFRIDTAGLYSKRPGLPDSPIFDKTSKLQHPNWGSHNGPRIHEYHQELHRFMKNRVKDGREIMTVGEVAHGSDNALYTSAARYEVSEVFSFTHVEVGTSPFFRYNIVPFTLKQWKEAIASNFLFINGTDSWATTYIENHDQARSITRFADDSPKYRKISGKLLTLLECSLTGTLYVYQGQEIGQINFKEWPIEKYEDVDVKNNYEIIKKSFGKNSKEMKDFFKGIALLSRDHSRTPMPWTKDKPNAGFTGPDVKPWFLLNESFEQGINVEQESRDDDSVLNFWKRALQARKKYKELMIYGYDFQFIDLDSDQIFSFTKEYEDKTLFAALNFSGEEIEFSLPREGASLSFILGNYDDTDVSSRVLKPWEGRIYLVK
T2 sequence (P07768 1008-1827 limits assumed): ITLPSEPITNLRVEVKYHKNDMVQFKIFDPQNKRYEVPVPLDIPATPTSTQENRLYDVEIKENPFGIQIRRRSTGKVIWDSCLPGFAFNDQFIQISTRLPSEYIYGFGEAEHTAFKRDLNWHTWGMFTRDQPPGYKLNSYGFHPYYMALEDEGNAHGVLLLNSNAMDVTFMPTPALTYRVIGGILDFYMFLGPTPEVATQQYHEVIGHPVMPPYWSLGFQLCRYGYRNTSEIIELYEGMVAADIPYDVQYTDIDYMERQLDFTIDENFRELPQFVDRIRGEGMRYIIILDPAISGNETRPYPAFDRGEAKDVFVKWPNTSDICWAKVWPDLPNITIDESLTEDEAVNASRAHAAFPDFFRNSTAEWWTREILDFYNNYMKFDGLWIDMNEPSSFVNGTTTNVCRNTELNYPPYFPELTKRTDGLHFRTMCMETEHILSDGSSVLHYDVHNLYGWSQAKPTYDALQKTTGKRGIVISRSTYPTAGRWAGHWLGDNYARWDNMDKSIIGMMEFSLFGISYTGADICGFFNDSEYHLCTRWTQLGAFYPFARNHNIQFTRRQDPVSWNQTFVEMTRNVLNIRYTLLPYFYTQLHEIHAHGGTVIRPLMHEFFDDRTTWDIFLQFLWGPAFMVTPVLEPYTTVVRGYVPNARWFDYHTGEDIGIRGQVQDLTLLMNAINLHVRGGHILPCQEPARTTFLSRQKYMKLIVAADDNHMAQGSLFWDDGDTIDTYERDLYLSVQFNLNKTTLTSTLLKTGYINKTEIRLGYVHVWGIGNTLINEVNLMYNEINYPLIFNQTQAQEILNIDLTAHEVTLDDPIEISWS
T2 sequence (P07768 2-1007 partner limits assumed): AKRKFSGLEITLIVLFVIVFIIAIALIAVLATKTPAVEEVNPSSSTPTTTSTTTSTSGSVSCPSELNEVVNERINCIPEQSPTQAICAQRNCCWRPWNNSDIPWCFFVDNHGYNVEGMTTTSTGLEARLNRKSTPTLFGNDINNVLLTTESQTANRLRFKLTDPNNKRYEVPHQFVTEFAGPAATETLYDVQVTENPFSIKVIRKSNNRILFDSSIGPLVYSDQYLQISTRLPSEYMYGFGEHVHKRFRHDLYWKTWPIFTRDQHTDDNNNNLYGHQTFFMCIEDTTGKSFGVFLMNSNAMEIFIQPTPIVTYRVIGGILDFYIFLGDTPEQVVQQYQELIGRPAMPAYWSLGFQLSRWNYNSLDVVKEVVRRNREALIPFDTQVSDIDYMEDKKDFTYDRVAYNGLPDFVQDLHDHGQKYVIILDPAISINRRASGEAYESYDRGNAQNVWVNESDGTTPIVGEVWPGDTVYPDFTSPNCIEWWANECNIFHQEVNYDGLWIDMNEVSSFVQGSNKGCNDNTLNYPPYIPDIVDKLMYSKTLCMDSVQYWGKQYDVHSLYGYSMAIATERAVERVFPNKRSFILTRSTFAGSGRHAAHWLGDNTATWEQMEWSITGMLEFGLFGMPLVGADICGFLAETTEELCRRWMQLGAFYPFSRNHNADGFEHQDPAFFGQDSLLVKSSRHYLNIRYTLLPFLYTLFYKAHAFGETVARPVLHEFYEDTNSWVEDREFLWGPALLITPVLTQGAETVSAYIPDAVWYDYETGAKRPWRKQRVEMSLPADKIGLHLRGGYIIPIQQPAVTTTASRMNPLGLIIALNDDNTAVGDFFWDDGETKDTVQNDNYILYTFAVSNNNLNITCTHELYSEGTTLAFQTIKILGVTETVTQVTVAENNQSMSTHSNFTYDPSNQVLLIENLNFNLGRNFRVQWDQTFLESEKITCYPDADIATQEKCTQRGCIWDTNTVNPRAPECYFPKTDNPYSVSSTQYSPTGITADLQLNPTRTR
T1 sequence (Q42656 16-378): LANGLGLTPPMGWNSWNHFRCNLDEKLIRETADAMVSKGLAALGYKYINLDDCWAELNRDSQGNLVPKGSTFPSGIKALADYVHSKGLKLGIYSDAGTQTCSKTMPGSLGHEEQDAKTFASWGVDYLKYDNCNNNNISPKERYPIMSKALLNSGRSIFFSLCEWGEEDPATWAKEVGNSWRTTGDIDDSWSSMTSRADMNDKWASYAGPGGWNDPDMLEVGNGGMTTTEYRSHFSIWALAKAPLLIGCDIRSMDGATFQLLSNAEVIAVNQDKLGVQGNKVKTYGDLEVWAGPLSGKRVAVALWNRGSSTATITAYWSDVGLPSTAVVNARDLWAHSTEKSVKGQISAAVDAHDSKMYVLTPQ

In the case of `OC[C@@H]1[C@@H](O)[C@H](O)[C@H]2[C@H](O)[C@@H](O)CN21` [casuarine (8)], in test [1], the “induction of IL-12 secretion, dose response” value is reported as “higher at low doses than high”. The “% inhibition, gluc (Bacillus)” value in [2] was determined as 86%. In addition, the inhibition (usually the percentage by which the read-out fell short of the control) at 1000 µg/mL in test [3] worked out at 4%; in test [6] (1 mg/ml, read-out: % inhibition, gluc (yeast)), 64%. Besides, in test [4], the “inhibition of rabbit small intestine sucrase” value was “inhibited”. In addition, in test [5], the Metastatic morphology entry is listed as “Metastasis restricted to apical tip of lung”. In addition, the Ki – broadly, a dissociation constant, usually derived from enzyme kinetics or from competition with a known ligand – in test [6] is 217 µM. In addition, the “inhibition of almond β-D-glucosidase” value in test [7] (800 μM) is given as “not being inhibitory”. Also, in test [7] (1 mg/ml), the “% inhibition, glucosidase” value is recorded as 0%. Also, in test [8], the “% inhibition, Naringinase” value is listed as −2%. The “glycan synthesis and/or N-linked glycosylation in breast cancer cells” value in test [9] is “can inhibit glycan synthesis and/or N-linked glycosylation”.

(Values after patent US20090117083A1, “IMMUNOMODULATORY ALKALOIDS” (M N L PHARMA LIMITED, priority 2004, published 2009).)
